Target: T1, SHC-transforming protein 2 (Homo sapiens, UniProt P98077)
T1 sequence (P98077 whole entry): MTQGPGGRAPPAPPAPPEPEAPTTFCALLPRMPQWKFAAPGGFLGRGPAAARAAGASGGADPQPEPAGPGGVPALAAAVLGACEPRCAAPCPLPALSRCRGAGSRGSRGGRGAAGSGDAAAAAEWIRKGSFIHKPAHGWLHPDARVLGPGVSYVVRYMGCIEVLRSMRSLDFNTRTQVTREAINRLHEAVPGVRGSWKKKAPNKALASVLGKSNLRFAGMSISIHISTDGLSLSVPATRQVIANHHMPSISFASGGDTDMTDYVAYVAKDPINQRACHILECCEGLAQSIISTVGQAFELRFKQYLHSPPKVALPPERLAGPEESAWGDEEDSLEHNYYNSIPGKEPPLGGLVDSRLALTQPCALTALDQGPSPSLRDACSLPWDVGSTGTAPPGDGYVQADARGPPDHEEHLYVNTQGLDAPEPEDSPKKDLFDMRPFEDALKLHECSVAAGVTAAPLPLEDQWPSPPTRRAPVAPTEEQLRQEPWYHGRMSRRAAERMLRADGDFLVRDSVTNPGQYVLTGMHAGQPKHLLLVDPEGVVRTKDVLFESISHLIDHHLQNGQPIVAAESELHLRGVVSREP
Assay: Inhibition of binding to SH2 domain of SHC-PTB

- IC50: > 5 µM
Structure (SMILES): NC(=O)CC(NC(=O)C1(NC(=O)C(N)Cc2ccc(OP(=O)(O)O)c(N)c2)CCCCC1)C(N)=O (stereo unspecified) [Phosphoric acid mono-(2-amino-4-{2-amino-2-[1-(1,2-dicarbamoyl-ethylcarbamoyl)-cyclohexylcarbamoyl]-ethyl}-phenyl) ester]
